{"source": "patent US20180289008A1", "about": "“METHODS FOR WILDFIRE CONTROL, INVASIVE PLANT CONTROL, AND RESIDUAL CONTROL OF INVASIVE PLANTS” (priority 2017, published 2018)", "key": {"all nine weed species": {"test_system": "all nine weed species", "assay": "Greenhouse pre-emergence dose-response bioassay, across all nine weed species", "type": "in vivo", "conditions": "averaging across all nine weed species", "source_text": "A greenhouse experiment was designed to determine if the extended control of Dalmatian toadflax and downy brome provided by indaziflam in the field was due to increased residual seedling control. This experiment was designed to compare indaziflam's pre-emergence efficacy to the currently recommended herbicides (aminocyclopyrachlor and aminopyralid) for annual, biennial, and perennial weed control in non-crop areas. […] This allows for direct comparisons between herbicides on an active ingredient basis for aminopyralid, aminocyclopyrachlor, and indaziflam. […]\n(§1) Plants were harvested at the soil surface approximately 4 to 5 week-after-treatment (WAT) depending on the growth stage of each species. Weights were recorded after samples were dried for 5 days at 60° C. Percent dry weight reduction was calculated relative to the non-treated control plants for each treatment.\nData from the greenhouse dose-response experiment were first analyzed using the PROC MIXED method in SAS 9.3 with treatment as a fixed effect and experiment and replicate as random effects (SAS Institute 2010). […] The herbicide concentrations resulting in 50% reduction in plant biomass (GR50) compared to the non-treated control were determined for each invasive weed species using four-parameter log-logistic regression. […]"}, "[1]": {"test_system": "Common mullein (Verbascum thapsus)", "assay": "Greenhouse pre-emergence dose-response bioassay (GR50)", "type": "in vivo", "source_text": "(§2) A greenhouse experiment was designed to determine if the extended control of Dalmatian toadflax and downy brome provided by indaziflam in the field was due to increased residual seedling control. This experiment was designed to compare indaziflam's pre-emergence efficacy to the currently recommended herbicides (aminocyclopyrachlor and aminopyralid) for annual, biennial, and perennial weed control in non-crop areas. […] This allows for direct comparisons between herbicides on an active ingredient basis for aminopyralid, aminocyclopyrachlor, and indaziflam.\n(§3) For the greenhouse bioassay, seeds were planted at a constant depth of 0.5 cm in 13- by 9- by 6-cm plastic containers, filled with an Otero sandy clay loam field soil (Coarse-loamy, mixed (calcareous), mesic Aridic Ustorthents) with 3.9% OM and pH 7.7. Seeding densities were adjusted based on germinability to reach a target density of 40 plants/pot. Plants were maintained in a greenhouse with a 25/20° C. day/night temperature with natural light supplemented with high-intensity discharge lamps to give a 15-h photoperiod. Plants were sub-irrigated as needed and misted overhead daily to reduce soil crusting.\n(§4) The greenhouse experiment was a completely randomized design with a factorial of seven herbicide rates and a non-treated control with three replicates per treatment. The experiments were conducted at two different times. A preliminary greenhouse study was conducted for each herbicide and species to determine a range of doses that would best fit a logistic regression. It is not unusual for both pre-emergence and post-emergence herbicides to provide control at lower than labeled rates, e.g., 0.5-560 g ai ha^−1 (aminocyclopyrachlor), 0.9-224 g ai ha^−1 (aminopyralid), and 0.05-11.7 g ai ha^−1 (indaziflam) in the greenhouse with ideal environmental conditions, so it was not surprising that herbicide doses for the regression analysis were much lower than recommended field use rates. Herbicides were applied pre-emergence using a Generation III research track sprayer (DeVries Manufacturing, Hollandale, Minn.) equipped with a TeeJet 8002 EVS flat-fan spray nozzle (TeeJet Spraying Systems Co., Wheaton, Ill.) at 187 L·ha-1 at 172 kPa.\nas §1\n(§5) Data from the greenhouse dose-response experiment were first analyzed using the PROC MIXED method in SAS 9.3 with treatment as a fixed effect and experiment and replicate as random effects (SAS Institute 2010). Based on a non-significant homogeneity of variance (ANOVA) and experiment-by-herbicide rate interaction, results from the repeated experiments were pooled. The treatment effect was significant, therefore, nonlinear regression in Graphpad Prism 7.00 (GraphPad Software, La Jolla Calif. USA) was used to describe the response of the nine weed species to aminocyclopyrachlor, aminopyralid, and indaziflam. The herbicide concentrations resulting in 50% reduction in plant biomass (GR50) compared to the non-treated control were determined for each invasive weed species using four-parameter log-logistic regression. The equation used to regress herbicide concentration with percent reduction in plant dry biomass as compared to the non-treated control was:\n(§6) where C and D represent the lower and upper limits of the dose-response curve, respectively, and b represents the slope of the best-fitting curve through the GR50 value. For curve fitting and GR50 estimation, the model was constrained to a maximum of 100 and minimum of 0. Mean separation of herbicide GR50 values were analyzed by Fisher's Protected LSD test at the 5% level of probability. […]"}, "[2]": {"test_system": "Diffuse knapweed (Centaurea diffusa)", "assay": "Greenhouse pre-emergence dose-response bioassay (GR50)", "type": "in vivo", "source_text": "as §2, §3, §4, §1, §5, §6"}, "[3]": {"test_system": "Marestail (Conyza Canadensis)", "assay": "Greenhouse pre-emergence dose-response bioassay (GR50)", "type": "in vivo", "source_text": "as §2, §3, §4, §1, §5, §6"}, "[4]": {"test_system": "downy brome (Bromus tectorum)", "assay": "Greenhouse pre-emergence dose-response bioassay (GR50)", "type": "in vivo", "source_text": "as §2, §3, §4, §1, §5, §6"}, "[5]": {"test_system": "Dalmatian toadflax (Linaria dalmatica)", "assay": "Greenhouse pre-emergence dose-response bioassay (GR50)", "type": "in vivo", "source_text": "as §2, §3, §4, §1, §5, §6"}, "[6]": {"test_system": "Musk thistle (Carduus nutans)", "assay": "Greenhouse pre-emergence dose-response bioassay (GR50)", "type": "in vivo", "source_text": "as §2, §3, §4, §1, §5, §6"}, "[7]": {"test_system": "Halogeton (Halogeton glomeratus)", "assay": "Greenhouse pre-emergence dose-response bioassay (GR50)", "type": "in vivo", "source_text": "as §2, §3, §4, §1, §5, §6"}, "[8]": {"test_system": "Common teasel (Dipsacus fullonum)", "assay": "Greenhouse pre-emergence dose-response bioassay (GR50)", "type": "in vivo", "source_text": "as §2, §3, §4, §1, §5, §6"}, "[9]": {"test_system": "Curly dock (Rumex crispus)", "assay": "Greenhouse pre-emergence dose-response bioassay (GR50)", "type": "in vivo", "source_text": "as §2, §3, §4, §1, §5, §6"}, "[10]": {"conditions": "average; cited from earlier work"}, "[11]": {"test_system": "downy brome, common mullein, Canada thistle, teasel, houndstongue, Scotch thistle, diffuse knapweed, field bindweed", "assay": "Seedling control of invasive weeds versus untreated (FIG. 4A-4D)", "conditions": "in vivo"}}, "note": "Several values for one entry are separate records, joined by “and”; a condition that tells them apart may be missing. Equal values may be shown once. Read-outs that look alike come from different tables or passages of the source."}
{"smiles": "Cc1ccc2c(c1)[C@H](Nc1nc(N)nc(C(C)F)n1)[C@@H](C)C2", "note": "(mixture of isomers) [Indaziflam, N2-[(1R,2S)-2,3-dihydro-2,6-dimethyl-1H-inden-1-yl]-6-[(1RS)-1-fluoroethyl]-1,3,5-triazine-2,4-diamine]", "values": [{"measurement": "times more active than aminocyclopyrachlor", "setting": "all nine weed species", "value": 29}, {"measurement": "times more active than aminopyralid", "setting": "all nine weed species", "value": 52}, {"measurement": "GR50 ratio Aminocyclopyrachlor/Indaziflam", "setting": "[1]", "value": 44.57}, {"measurement": "GR50 ratio Aminopyralid/Indaziflam", "setting": "[1]", "value": "106 and 106.43"}, {"measurement": "GR50 (herbicide dose resulting in 50% dry biomass reduction)", "setting": "[1]; pre-emergence", "value": 0.07, "unit": "a g ai ha^−1"}, {"measurement": "GR50 ratio Aminocyclopyrachlor/Indaziflam", "setting": "[2]", "value": 10.69}, {"measurement": "GR50 ratio Aminopyralid/Indaziflam", "setting": "[2]", "value": "4 and 4.31"}, {"measurement": "GR50 (herbicide dose resulting in 50% dry biomass reduction)", "setting": "[2]; pre-emergence", "value": 0.58, "unit": "a g ai ha^−1"}, {"measurement": "GR50 ratio Aminocyclopyrachlor/Indaziflam", "setting": "[3]", "value": 12.29}, {"measurement": "GR50 ratio Aminopyralid/Indaziflam", "setting": "[3]", "value": "5 and 4.71"}, {"measurement": "GR50 (herbicide dose resulting in 50% dry biomass reduction)", "setting": "[3]; pre-emergence", "value": 0.17, "unit": "a g ai ha^−1"}, {"measurement": "GR50 ratio Aminocyclopyrachlor/Indaziflam", "setting": "[4]", "value": 144.62}, {"measurement": "GR50 ratio Aminopyralid/Indaziflam", "setting": "[4]", "value": 98.72}, {"measurement": "GR50 ratio Aminocyclopyrachlor/Indaziflam", "setting": "[4]; listed as indaziflam", "value": 125}, {"measurement": "GR50 ratio Aminopyralid/Indaziflam", "setting": "[4]; listed as indaziflam", "value": 99}, {"measurement": "GR50 (herbicide dose resulting in 50% dry biomass reduction)", "setting": "[4]; pre-emergence", "value": 0.39, "unit": "a g ai ha^−1"}, {"measurement": "GR50 ratio Aminocyclopyrachlor/Indaziflam", "setting": "[5]", "value": 19.33}, {"measurement": "GR50 ratio Aminopyralid/Indaziflam", "setting": "[5]", "value": 246.67}, {"measurement": "GR50 ratio Aminocyclopyrachlor/Indaziflam", "setting": "[5]; listed as indaziflam", "value": 19}, {"measurement": "GR50 ratio Aminopyralid/Indaziflam", "setting": "[5]; listed as indaziflam", "value": 247}, {"measurement": "GR50 (herbicide dose resulting in 50% dry biomass reduction)", "setting": "[5]; pre-emergence", "value": 0.06, "unit": "a g ai ha^−1"}, {"measurement": "GR50 ratio Aminocyclopyrachlor/Indaziflam", "setting": "[6]", "value": 3.79}, {"measurement": "GR50 ratio Aminopyralid/Indaziflam", "setting": "[6]", "value": 0.94}, {"measurement": "GR50 (herbicide dose resulting in 50% dry biomass reduction)", "setting": "[6]; pre-emergence", "value": 0.33, "unit": "a g ai ha^−1"}, {"measurement": "GR50 ratio Aminocyclopyrachlor/Indaziflam", "setting": "[7]", "value": 2.89}, {"measurement": "GR50 ratio Aminopyralid/Indaziflam", "setting": "[7]", "value": "9 and 8.64"}, {"measurement": "GR50 (herbicide dose resulting in 50% dry biomass reduction)", "setting": "[7]; pre-emergence", "value": 0.36, "unit": "a g ai ha^−1"}, {"measurement": "GR50 ratio Aminocyclopyrachlor/Indaziflam", "setting": "[8]", "value": 5.18}, {"measurement": "GR50 ratio Aminopyralid/Indaziflam", "setting": "[8]", "value": 0.56}, {"measurement": "GR50 (herbicide dose resulting in 50% dry biomass reduction)", "setting": "[8]; pre-emergence", "value": 1.33, "unit": "b g ai ha^−1"}, {"measurement": "GR50 ratio Aminocyclopyrachlor/Indaziflam", "setting": "[9]", "value": 19.36}, {"measurement": "GR50 ratio Aminopyralid/Indaziflam", "setting": "[9]", "value": 1.14}, {"measurement": "GR50 (herbicide dose resulting in 50% dry biomass reduction)", "setting": "[9]; pre-emergence", "value": 1.10, "unit": "a g ai ha^−1"}, {"measurement": "water solubility", "setting": "[10]", "value": 3.6, "unit": "µg/mL"}, {"measurement": "seedling control of invasive weeds compared with the untreated (FIG. 4A-4D)", "setting": "[11]", "value": "improved seedling control of invasive weeds"}]}
